Test results taken from patent publication US11926599B1, “1-(2-chlorobenzylideneamino)-5,5-diphenylimidazolidine-2,4-dione as an antimicrobial compound” (KING FAISAL UNIVERSITY, priority 2023, dated 2024).

Columns and labels:
Type in all cases: cell-based
[1] = tested on: Chrysosporium keratinophilum; assay: Agar plate disc-diffusion, antifungal inhibition zone; conditions: Sabouraud's dextrose agar, 72 hours, DMSO zone subtracted
Description: (§1) The agar plate disc-diffusion method was applied. […] The discs were then placed onto the surface of agar plates (nutrient agar for bacteria and Sabouraud's dextrose agar for fungi) seeded with the test organism. Each plate contained 15 mL of the agar medium, previously seeded with 0.2 mL of the broth culture of each organism pregrown for 18 hours. The plates were incubated at 37° C. for 48 hours, and 72 hours for fungi. The inhibition zones was measured in millimeter. Discs impregnated with DMSO were used as a control, and its inhibition zone was subtracted from the tested compound actual inhibition zone.
(§2) The results of the antimicrobial testing can be observed in Tables 1 and 2, below, with ciprofloxacin serving as a reference.

[2] = tested on: Aspergillus flavus; assay: as above; conditions: Sabouraud's dextrose agar, 72 hours, DMSO zone subtracted
Description: as §1, §2

[3] = tested on: Bacillus cereus; assay: Agar plate disc-diffusion, antibacterial inhibition zone; conditions: nutrient agar, 37° C., 48 hours, DMSO zone subtracted
Description: as §1, §2

[4] = tested on: Escherichia coli; assay: as above; conditions: nutrient agar, 37° C., 48 hours, DMSO zone subtracted
Description: as §1, §2

[5] = tested on: Staphylococcus aureus; assay: as above; conditions: nutrient agar, 37° C., 48 hours, DMSO zone subtracted
Description: as §1, §2

[6] = tested on: Pseudomonas aeruginosa; assay: as above; conditions: nutrient agar, 37° C., 48 hours, DMSO zone subtracted
Description: as §1, §2

[7] = A = concentration of comp. = 10,000 μL
[8] = B = concentration of comp. = 30.000 μL
[9] = C = concentration of comp. = 50,000 μL

O=C1NC(=O)C(c2ccccc2)(c2ccccc2)N1/N=C/c1ccccc1Cl [Compound 4, 1-(2-chlorobenzylideneamino)-5,5-diphenylimidazolidine-2,4-dione]
inhibition zone, Chrysosporium keratinophilum, A [1, 7]: 27 millimeter
inhibition zone, Chrysosporium keratinophilum, B [1, 8]: 29 millimeter
inhibition zone, Chrysosporium keratinophilum, C [1, 9]: 50 millimeter
inhibition zone, Aspergillus flavus, A [2, 7]: 25 millimeter
inhibition zone, Aspergillus flavus, B [2, 8]: 24 millimeter
inhibition zone, Aspergillus flavus, C [2, 9]: 36 millimeter
inhibition zone, Bacillus Cereus, A [3, 7]: 26 millimeter
inhibition zone, Bacillus Cereus, B [3, 8]: 29 millimeter
inhibition zone, Bacillus Cereus, C [3, 9]: 41 millimeter
inhibition zone, Escherichia coli, A [4, 7]: 27 millimeter
inhibition zone, Escherichia coli, B [4, 8]: 32 millimeter
inhibition zone, Escherichia coli, C [4, 9]: 51 millimeter
inhibition zone, Staphylococcus aureus, A [5, 7]: 10 millimeter
inhibition zone, Staphylococcus aureus, B [5, 8]: 17 millimeter
inhibition zone, Staphylococcus aureus, C [5, 9]: 20 millimeter
inhibition zone, Pseudomonas aeruginosa, A [6, 7]: 20 millimeter
inhibition zone, Pseudomonas aeruginosa, B [6, 8]: 24 millimeter
inhibition zone, Pseudomonas aeruginosa, C [6, 9]: 34 millimeter
